From US20220315578A1, “BRD9 BIFUNCTIONAL DEGRADERS AND THEIR METHODS OF USE” (NOVARTIS AG, priority 2019, published 2022)

Molecular target: T1, BRD9-GFP (Homo sapiens, UniProt Q9H8M2)
T1 construct: CHYSEL (2A cis-acting hydrolase element) remnant after GFP; mCherry is split off as a separate protein (C); expressed in transfected cells; host or cells: HEK293A cells (Invitrogen R70507), lentiviral transduction with pLenti6-BRD9-GFP-CHYSEL-mCherry, blasticidin selection
T1 sequence (Q9H8M2 1-597): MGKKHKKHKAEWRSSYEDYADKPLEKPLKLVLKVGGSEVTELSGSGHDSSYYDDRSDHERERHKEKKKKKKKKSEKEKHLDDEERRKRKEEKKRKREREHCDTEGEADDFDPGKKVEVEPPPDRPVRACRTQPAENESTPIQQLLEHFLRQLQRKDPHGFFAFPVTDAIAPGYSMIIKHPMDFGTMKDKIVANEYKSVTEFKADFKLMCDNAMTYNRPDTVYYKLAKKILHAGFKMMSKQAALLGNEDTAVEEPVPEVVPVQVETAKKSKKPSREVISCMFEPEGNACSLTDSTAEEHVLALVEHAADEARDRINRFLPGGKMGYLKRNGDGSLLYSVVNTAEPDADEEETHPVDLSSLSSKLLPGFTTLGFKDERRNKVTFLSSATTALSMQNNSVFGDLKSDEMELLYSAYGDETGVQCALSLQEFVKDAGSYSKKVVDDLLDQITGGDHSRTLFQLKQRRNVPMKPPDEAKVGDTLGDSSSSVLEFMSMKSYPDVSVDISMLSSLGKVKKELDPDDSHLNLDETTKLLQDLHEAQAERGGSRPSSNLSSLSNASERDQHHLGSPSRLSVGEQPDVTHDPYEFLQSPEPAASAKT
Assay: BRD9-GFP protein abundance flow cytometry assay in HEK293A cells
Format: cell-based
Conditions: HEK293A-BRD9-GFP-CHYSEL-mCherry cells; for BRD9 Deg Amax %: 24 h, % protein remaining at the concentration at which maximum degradation is seen; for DC50: 24 h at 37° C., 10-point 1:3 dilution, concentration at which 50% maximal degradation was observed
Summary of the method: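 HEK293A cells stably express bicistronic BRD9-GFP-CHYSEL-mCherry and received 24 h treatment at 37° C with a 10-point, 3-fold dilution series from […], in 0.1% DMSO and duplicate. Median GFP/mCherry ratio of 5,000 single cells by flow cytometry, normalized to mCherry-only cells (0%) and DMSO (100%), gave DC50 and Amax (% protein remaining).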

Compound	BRD9 Deg Amax %	DC50
COc1cc(-c2cn(C)c(=O)c3cnccc23)c(OC)cc1CN1CC[C@@H](OC2CCN(CCn3cccc(CN4CCC(=O)NC4=O)c3=O)CC2)[C@H](F)C1 [Compound E39, 1-((1-(2-(4-(((3R,4R)-1-(2,5-Dimethoxy-4-(2-methyl-1-oxo-1,2-dihydro-2,7-naphthyridin-4-yl)benzyl)-3-fluoropiperidin-4-yl)oxy)piperidin-1-yl)ethyl)-2-oxo-1,2-dihydropyridin-3-yl)methyl)dihydropyrimidine-2,4(1H,3H)-dione]	14.60%	4 nM
Cn1cc(-c2cc(F)c(CN3CC[C@@H](OC4CCN(CCn5cccc(CN6CCC(=O)NC6=O)c5=O)CC4)[C@H](F)C3)c(F)c2)c2ccncc2c1=O [Compound E30, 1-((1-(2-(4-(((3R,4R)-1-(2,6-difluoro-4-(2-methyl-1-oxo-1,2-dihydro-2,7-naphthyridin-4-yl)benzyl)-3-fluoropiperidin-4-yl)oxy)piperidin-1-yl)ethyl)-2-oxo-1,2-dihydropyridin-3-yl)methyl)dihydro-pyrimidine-2,4(1H,3H)-dione]	11.19%	3 nM
CCCCn1cc(-c2cc(F)c(CCN3CCC(OC4CCN(C(=O)c5ccc(Cl)c(N6CCC(=O)NC6=O)c5)CC4)CC3)c(OC)c2)c2ccncc2c1=O [Compound E53, 1-(5-(4-((1-(4-(2-butyl-1-oxo-1,2-dihydro-2,7-naphthyridin-4-yl)-2-fluoro-6-methoxyphenethyl)-piperidin-4-yl)oxy)piperidine-1-carbonyl)-2-chlorophenyl)dihydro-pyrimidine-2,4(1H,3H)-dione]	16.11%	4 nM

Compounds with a lower DC50, results first:

BRD9 Deg Amax %	DC50	Compound
20.62%	2 nM	COc1cc(-c2cn(C)c(=O)c3cnccc23)cc(OC)c1OC1CCN(CC2CCN(C(=O)c3ccc(Cl)c(N4CCC(=O)NC4=O)c3)CC2)CC1 [Compound A9, 1-(2-Chloro-5-(4-((4-(2,6-dimethoxy-4-(2-methyl-1-oxo-1,2-dihydro-2,7-naphthyridin-4-yl)phenoxy)piperidin-1-yl)methyl)piperidine-1-carbonyl)phenyl)dihydropyrimidine-2,4(1H,3H)-dione]
19.65%	1 nM	CCCCn1cc(-c2cc(F)c(O[C@@H]3CCN(CC4CCN(C(=O)c5ccc(OC)c(N6CCC(=O)NC6=O)c5)CC4)C[C@H]3F)c(F)c2)c2ccncc2c1=O [Compound E56, 1-(5-(4-(((3R,4R)-4-(4-(2-butyl-1-oxo-1,2-dihydro-2,7-naphthyridin-4-yl)-2,6-difluorophenoxy)-3-fluoropiperidin-1-yl)methyl)piperidine-1-carbonyl)-2-methoxyphenyl)dihydropyrimidine-2,4(1H,3H)-dione]
16.43%	1 nM	CCCCn1cc(-c2ccc(O[C@H]3CCN(CC4CCN(C(=O)c5ccc(OC)c(N6CCC(=O)NC6=O)c5)CC4)C[C@@H]3F)cc2)c2ccncc2c1=O [Compound E31, 1-(5-(4-(((3S,4S)-4-(4-(2-butyl-1-oxo-1,2-dihydro-2,7-naphthyridin-4-yl)phenoxy)-3-fluoropiperidin-1-yl)methyl)piperidine-1-carbonyl)-2-meth-oxyphenyl)dihydro-pyrimidine-2,4(1H,3H)-dione]
